Experimental data reported in ChEMBL document CHEMBL1201862, “PubChem BioAssay data set” (2004).
Active and inactive are the calls of the source.

Tests used:
[1] = molecular target: Fibroblast growth factor receptor 1 (Homo sapiens, UniProt P11362); assay type: functional
[2] = molecular target: Serine/threonine-protein kinase D3 (Homo sapiens, UniProt O94806); assay type: functional;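 also: determined within a kinase panel screen, with PRKCN as the panel member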
[3] = molecular target: Serine/threonine-protein kinase TBK1 (Homo sapiens, UniProt Q9UHD2); assay: Navigating the Kinome. Panel member name: TBK1; assay type: functional
[4] = molecular target: Rho-associated protein kinase 1 (Homo sapiens, UniProt Q13464); assay type: functional;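 also: measured within a broad kinome-wide panel profiling many kinases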
Sequence of Rho-associated protein kinase 1 (Q13464 whole entry): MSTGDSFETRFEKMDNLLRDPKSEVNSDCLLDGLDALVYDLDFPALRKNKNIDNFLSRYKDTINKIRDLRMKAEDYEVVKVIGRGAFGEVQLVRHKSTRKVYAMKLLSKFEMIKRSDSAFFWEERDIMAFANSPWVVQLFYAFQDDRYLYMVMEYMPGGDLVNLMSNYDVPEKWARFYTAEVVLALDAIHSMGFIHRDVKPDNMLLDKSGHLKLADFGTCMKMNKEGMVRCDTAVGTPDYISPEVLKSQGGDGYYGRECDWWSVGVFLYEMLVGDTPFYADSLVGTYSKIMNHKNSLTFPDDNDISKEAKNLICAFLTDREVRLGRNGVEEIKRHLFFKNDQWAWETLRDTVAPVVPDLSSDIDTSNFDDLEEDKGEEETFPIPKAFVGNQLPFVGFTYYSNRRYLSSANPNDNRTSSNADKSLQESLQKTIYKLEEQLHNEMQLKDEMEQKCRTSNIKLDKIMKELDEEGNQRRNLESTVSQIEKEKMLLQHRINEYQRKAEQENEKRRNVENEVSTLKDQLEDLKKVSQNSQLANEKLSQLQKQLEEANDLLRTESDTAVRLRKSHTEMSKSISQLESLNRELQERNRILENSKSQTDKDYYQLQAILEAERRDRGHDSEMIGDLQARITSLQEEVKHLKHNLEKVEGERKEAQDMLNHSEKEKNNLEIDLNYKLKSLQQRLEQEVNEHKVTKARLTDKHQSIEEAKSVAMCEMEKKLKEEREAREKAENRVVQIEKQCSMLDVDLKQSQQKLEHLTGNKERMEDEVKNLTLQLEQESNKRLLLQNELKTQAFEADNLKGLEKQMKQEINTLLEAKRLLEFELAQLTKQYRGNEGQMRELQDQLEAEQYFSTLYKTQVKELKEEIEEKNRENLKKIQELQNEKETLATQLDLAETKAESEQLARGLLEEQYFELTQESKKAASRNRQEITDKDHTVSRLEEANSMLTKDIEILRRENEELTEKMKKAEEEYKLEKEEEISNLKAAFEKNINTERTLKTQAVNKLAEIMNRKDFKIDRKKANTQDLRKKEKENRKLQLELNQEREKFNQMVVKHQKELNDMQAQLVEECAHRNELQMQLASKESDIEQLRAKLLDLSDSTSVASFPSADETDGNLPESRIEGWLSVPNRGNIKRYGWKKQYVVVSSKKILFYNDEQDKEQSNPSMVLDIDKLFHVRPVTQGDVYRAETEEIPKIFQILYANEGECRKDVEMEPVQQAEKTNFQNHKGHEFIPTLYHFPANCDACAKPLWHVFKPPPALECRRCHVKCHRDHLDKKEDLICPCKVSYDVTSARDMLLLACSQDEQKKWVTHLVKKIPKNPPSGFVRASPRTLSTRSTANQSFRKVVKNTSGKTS

[5] = molecular target: Cyclin-dependent kinase 7 (Homo sapiens, UniProt P50613); assay type: functional;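 also: value comes from a kinome-wide kinase profiling panel in which CDK7 is one member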
[6] = molecular target: High affinity nerve growth factor receptor (Homo sapiens, UniProt P04629); assay type: functional;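 also: NTRK1 tested as one member of a kinome-wide profiling panel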
[7] = molecular target: Calcium/calmodulin-dependent protein kinase type II subunit alpha (Homo sapiens, UniProt Q9UQM7); assay: Navigating the Kinome. Panel member name: CAMK2A; assay type: functional
Sequence of Calcium/calmodulin-dependent protein kinase type II subunit alpha (Q9UQM7 whole entry): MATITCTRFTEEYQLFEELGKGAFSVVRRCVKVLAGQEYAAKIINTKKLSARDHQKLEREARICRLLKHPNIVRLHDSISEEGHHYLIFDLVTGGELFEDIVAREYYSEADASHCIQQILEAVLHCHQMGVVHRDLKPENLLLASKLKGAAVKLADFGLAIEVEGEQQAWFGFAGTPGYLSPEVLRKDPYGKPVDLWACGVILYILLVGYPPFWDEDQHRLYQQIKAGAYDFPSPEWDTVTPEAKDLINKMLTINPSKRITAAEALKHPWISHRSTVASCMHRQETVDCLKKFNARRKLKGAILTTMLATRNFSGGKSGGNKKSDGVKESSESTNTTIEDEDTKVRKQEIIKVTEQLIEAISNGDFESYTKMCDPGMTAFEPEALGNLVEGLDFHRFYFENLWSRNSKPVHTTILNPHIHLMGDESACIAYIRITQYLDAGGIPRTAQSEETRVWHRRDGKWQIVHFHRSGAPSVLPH

[8] = molecular target: Proto-oncogene tyrosine-protein kinase receptor Ret (Homo sapiens, UniProt P07949); assay type: functional;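 also: measured within a kinome-wide profiling panel, RET as the panel member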
[9] = molecular target: Vascular endothelial growth factor receptor 2 (Homo sapiens, UniProt P35968); assay type: functional
[10] = molecular target: Cyclin-dependent kinase 8 (Homo sapiens, UniProt P49336); assay: Navigating the Kinome. Panel member name: CDK8; assay type: functional
Sequence of Cyclin-dependent kinase 8 (P49336 whole entry): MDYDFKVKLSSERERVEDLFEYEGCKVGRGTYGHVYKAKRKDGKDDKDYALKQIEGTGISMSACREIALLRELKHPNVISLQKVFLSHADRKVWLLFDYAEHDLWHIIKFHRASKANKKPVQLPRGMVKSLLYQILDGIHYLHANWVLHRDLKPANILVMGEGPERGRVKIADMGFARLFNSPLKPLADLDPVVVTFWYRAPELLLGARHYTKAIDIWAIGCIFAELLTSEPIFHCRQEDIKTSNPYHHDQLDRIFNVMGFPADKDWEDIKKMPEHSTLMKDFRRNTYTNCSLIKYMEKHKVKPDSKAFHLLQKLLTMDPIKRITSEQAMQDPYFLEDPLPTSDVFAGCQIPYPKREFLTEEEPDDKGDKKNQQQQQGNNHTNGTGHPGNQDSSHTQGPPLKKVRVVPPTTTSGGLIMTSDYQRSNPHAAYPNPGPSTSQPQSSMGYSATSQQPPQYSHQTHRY

[11] = molecular target: Tyrosine-protein kinase ABL1 (Homo sapiens, UniProt P00519); assay type: functional
Sequence of Tyrosine-protein kinase ABL1 (P00519 whole entry): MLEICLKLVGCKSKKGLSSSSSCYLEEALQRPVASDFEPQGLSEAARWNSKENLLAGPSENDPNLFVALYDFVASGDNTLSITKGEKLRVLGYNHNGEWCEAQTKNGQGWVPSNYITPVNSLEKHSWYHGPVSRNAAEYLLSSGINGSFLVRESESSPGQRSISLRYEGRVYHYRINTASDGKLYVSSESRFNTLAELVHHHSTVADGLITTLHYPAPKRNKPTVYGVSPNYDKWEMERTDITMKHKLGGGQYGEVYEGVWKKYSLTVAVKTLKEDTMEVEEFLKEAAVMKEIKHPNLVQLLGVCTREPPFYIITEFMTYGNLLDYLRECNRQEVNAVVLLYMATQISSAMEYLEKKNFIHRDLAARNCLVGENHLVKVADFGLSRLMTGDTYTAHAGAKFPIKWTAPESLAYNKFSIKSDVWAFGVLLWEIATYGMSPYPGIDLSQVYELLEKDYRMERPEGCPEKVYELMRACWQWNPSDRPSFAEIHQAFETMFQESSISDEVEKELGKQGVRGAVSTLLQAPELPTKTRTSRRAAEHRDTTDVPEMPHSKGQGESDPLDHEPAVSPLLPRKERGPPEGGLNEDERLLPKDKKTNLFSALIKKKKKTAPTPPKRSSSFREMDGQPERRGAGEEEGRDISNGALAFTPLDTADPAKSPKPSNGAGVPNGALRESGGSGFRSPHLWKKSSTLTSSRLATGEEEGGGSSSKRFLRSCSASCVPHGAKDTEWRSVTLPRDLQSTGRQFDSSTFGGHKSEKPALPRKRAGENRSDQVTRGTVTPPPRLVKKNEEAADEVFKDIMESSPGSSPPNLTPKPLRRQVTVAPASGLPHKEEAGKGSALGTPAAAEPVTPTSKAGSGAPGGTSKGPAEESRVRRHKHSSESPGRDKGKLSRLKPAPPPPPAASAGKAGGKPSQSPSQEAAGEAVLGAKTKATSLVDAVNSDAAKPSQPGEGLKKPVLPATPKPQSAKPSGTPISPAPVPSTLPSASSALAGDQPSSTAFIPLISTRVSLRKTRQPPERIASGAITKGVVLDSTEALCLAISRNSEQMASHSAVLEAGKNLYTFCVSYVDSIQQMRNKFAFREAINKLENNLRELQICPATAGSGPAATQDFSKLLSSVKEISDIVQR

[12] = molecular target: G protein-coupled receptor kinase 5 (Homo sapiens, UniProt P34947); assay: Navigating the Kinome. Panel member name: GPRK5; assay type: functional
[13] = molecular target: Casein kinase I isoform alpha (Homo sapiens, UniProt P48729); assay type: functional
Sequence of Casein kinase I isoform alpha (P48729 whole entry, canonical isoform): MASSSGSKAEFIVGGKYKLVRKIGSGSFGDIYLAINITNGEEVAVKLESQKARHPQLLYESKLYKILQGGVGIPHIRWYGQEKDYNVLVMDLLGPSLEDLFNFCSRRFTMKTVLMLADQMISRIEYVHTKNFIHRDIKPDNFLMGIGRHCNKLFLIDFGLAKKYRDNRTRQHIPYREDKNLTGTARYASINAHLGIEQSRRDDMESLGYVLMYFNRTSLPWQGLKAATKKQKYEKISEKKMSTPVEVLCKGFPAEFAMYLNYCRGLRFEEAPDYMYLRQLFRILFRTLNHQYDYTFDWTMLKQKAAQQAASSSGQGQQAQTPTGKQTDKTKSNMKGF

[14] = molecular target: T1, Sentrin-specific protease 6 (Homo sapiens, UniProt Q9GZR1); assay type: functional;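 also: Luminescence-based dose-response confirmatory assay of SENP6 inhibition, following up an ultra-high-throughput screen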
T1 sequence (Q9GZR1 whole entry): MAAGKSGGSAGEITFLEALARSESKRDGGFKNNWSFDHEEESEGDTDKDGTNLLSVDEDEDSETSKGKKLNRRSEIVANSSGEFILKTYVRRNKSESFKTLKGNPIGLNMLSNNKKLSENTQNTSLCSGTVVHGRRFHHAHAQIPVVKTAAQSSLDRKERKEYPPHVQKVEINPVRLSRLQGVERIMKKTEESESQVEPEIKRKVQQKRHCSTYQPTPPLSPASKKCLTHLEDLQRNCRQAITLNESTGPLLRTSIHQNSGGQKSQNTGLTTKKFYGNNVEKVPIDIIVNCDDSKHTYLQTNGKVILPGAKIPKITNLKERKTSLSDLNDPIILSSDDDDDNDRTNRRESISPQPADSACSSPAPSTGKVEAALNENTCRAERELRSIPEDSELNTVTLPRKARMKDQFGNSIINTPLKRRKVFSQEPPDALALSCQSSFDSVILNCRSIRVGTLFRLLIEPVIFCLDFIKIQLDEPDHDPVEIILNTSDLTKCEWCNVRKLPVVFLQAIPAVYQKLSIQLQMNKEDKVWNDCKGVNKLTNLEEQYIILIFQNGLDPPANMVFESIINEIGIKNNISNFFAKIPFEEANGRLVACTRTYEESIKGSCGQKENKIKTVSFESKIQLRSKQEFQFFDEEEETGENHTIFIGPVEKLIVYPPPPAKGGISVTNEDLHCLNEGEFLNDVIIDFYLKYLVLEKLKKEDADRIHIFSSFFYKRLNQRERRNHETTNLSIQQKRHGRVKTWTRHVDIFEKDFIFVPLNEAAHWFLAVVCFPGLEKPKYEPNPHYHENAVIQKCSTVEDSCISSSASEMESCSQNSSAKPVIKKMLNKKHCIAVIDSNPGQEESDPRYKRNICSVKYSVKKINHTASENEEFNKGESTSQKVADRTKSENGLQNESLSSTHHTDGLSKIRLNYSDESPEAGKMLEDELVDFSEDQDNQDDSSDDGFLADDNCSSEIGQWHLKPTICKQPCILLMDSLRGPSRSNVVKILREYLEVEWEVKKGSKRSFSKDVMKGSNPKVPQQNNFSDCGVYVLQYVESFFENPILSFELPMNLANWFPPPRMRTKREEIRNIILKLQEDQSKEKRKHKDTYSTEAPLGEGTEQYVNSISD

[15] = molecular target: DNA dC->dU-editing enzyme APOBEC-3G (Homo sapiens, UniProt Q9HC16); assay: Dose Response confirmation of small molecule APOBEC3G DNA Deaminase Inhibitors via a fluorescence-based single-stranded DNA deaminase assay. [Related pubchem assays (depositor defined):AID493012, AID493028]; assay type: functional
Sequence of DNA dC->dU-editing enzyme APOBEC-3G (Q9HC16 whole entry): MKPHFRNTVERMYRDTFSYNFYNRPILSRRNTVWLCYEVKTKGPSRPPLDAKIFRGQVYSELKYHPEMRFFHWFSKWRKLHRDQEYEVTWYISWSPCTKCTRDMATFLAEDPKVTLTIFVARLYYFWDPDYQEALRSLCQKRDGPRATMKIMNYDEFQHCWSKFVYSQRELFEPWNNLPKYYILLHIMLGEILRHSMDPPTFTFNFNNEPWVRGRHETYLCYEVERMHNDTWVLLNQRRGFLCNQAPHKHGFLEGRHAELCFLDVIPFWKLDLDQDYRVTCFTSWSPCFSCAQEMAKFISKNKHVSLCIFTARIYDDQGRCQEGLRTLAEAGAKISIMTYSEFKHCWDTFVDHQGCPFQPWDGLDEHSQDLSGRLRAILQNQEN

[16] = molecular target: T2, Sentrin-specific protease 8 (Homo sapiens, UniProt Q96LD8); assay type: functional
T2 sequence (Q96LD8 whole entry): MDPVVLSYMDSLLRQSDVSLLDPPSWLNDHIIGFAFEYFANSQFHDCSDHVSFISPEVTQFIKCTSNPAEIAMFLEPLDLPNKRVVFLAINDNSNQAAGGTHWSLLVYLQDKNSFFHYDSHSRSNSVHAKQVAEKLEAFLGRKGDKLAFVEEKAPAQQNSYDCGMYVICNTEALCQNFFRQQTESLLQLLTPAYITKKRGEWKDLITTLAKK

[17] = molecular target: T3, Caspase-6 (Homo sapiens, UniProt P55212); assay: inhibition of CASP6 peptide cleavage – biochemical, VEID-R110 fluorescence, cherry-pick, dose response (AID 720632)
T3 sequence (P55212 whole entry): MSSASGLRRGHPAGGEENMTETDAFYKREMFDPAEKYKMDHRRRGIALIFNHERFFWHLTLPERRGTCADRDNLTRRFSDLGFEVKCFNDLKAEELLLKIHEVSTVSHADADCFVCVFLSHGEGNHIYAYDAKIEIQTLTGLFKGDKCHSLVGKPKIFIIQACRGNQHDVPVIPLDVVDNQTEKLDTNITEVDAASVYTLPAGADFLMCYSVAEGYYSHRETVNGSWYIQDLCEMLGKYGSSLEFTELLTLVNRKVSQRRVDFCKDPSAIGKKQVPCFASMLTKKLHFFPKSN

[18] = molecular target: T4, Caspase-3 (Homo sapiens, UniProt P42574); assay: Dose-response confirmation of uHTS inhibitor hits of Sentrin-Specific Protease 8 in a Caspase-3 Fluorescence assay.; assay type: functional
T4 sequence (P42574 whole entry): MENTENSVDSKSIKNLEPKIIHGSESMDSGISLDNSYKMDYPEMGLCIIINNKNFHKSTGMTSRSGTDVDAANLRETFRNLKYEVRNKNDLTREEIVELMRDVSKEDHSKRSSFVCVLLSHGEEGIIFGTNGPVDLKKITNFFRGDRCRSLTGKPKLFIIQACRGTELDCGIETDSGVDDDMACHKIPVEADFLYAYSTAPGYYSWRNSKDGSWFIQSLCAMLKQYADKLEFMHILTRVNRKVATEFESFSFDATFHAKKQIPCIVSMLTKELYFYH

[19] = molecular target: Intestinal-type alkaline phosphatase (Mus musculus, UniProt P24822); assay: mouse intestinal alkaline phosphatase activators, dose response, biochemical, luminescence, uHTS hits (AID 488783); assay type: functional

Sequence of Serine/threonine-protein kinase D3 (O94806 whole entry): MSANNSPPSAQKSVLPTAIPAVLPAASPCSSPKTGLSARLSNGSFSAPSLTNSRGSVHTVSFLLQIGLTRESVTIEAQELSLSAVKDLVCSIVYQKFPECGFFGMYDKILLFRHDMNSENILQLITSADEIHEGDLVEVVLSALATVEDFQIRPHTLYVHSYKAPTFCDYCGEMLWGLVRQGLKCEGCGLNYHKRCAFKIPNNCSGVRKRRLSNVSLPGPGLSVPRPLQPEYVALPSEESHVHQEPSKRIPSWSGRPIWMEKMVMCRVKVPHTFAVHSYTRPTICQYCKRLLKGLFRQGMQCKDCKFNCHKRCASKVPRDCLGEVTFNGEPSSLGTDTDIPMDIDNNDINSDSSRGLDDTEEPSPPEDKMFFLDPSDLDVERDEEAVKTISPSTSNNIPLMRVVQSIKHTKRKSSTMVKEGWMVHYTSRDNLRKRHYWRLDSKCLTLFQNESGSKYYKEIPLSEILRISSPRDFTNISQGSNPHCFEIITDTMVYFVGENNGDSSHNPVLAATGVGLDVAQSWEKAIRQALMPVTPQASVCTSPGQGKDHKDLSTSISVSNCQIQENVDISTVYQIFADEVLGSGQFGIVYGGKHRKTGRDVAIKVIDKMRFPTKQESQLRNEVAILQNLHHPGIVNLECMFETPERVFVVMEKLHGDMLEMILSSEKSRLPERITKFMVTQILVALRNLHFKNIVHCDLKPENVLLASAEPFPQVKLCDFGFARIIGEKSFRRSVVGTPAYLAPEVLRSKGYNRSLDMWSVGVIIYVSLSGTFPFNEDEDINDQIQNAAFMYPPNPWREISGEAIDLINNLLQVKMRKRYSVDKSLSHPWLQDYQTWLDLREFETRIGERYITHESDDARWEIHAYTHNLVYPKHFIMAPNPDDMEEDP

**Q.** What does the source list for Cc1ccc(-c2cc3nc(Br)cnc3[nH]2)cc1?
**A.** Ki [1]: > 3.98 µM (inactive); Ki [2]: > 3.98 µM (inactive); Ki [3]: > 3.16 µM (inactive); Ki [4]: > 3.98 µM (inactive); Ki [5]: 0.158 µM (active); Ki [6]: > 3.16 µM (inactive); Ki [7]: > 7.94 µM (inactive); Ki [8]: 2.51 µM (active); Ki [9]: 1.26 µM (active); Ki [10]: > 3.98 µM (inactive); Ki [11]: 0.794 µM (active); Ki [12]: > 3.98 µM (inactive); Ki [13]: > 3.98 µM (inactive)

**Q.** What does the source list for CC(=O)N(C1=C(Cl)C(=O)c2ccccc2C1=O)c1ccc(C(=O)O)cc1?
**A.** IC50 [14]: 4.08 µM (active); IC50 [15]: 8.03 µM (active)

**Q.** With CC1(C)C=C2C(=NN(c3ccccc3)C(N)=C2C#N)CO1 as the compound, how does the IC50 [16] read?
**A.** 0.0693 µM (active)

**Q.** And the AC50 [17]?
**A.** 1.07 µM (active)

**Q.** What about the IC50 [18] of the same compound?
**A.** 1.09 µM (active)

**Q.** How did the EC50 [19] turn out when O=C1C=C(O)c2c(O)cc(O)c(O)c2C1=O was run?
**A.** 9.93 µM (active)
